This is an account of results in PubChem BioAssay (NCI).

What all share (assay): NCI anticancer screen, dose series, 48 h
Assay [1] has as its system A549 NSCLC.
Assay [2] relates to ACHN renal.
Assay [3] has as its system COLO 205 colon.
Assay [4] has as its system EKVX NSCLC.
The test system of assay [5] is HOP-92 NSCLC.
For assay [6], the system named is SF-268 CNS.
Assay [7] relates to SW-620 colon.
Assay [8] relates to U251 CNS.
The test system of assay [9] is UACC-62 melanoma.
The test system of assay [10] is HL-60(TB) leukemia.

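96-well plates; 48 h exposure; 5 concentrations. Endpoints by linear interpolation between flanking doses. Not reached: highest tested concentration assigned. GI50 = concentration required for 50% inhibition of growth. TGI: concentration producing complete growth inhibition.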

`NCCNCCNc1ccc(NCCNCCN)c2c1C(=O)c1c(O)ccc(O)c1C2=O`: the TGI in assay [1], in [2], in assay [3], in assay [4], in [5] and in assay [6] was above 100 µM each time. Also, the TGI in [7], in assay [8] and in [9] was above 100 µM throughout.
Consider `COC(=O)/C=C1\CCCN1CCc1cc2c(cc1CC#N)OCO2`, for which the TGI in assay [1], in assay [2], in assay [3], in assay [4], in assay [10] and in assay [5] was above 100 µM each time. For the same compound, the TGI in assay [6], in [7], in [8] and in assay [9] was above 100 µM each time.
Consider `COC(=O)c1ccccc1C1=C([N+](=O)[O-])C(c2cccc(Br)c2)C(C#N)=C(N)O1` (stereo not drawn), for which the TGI in assay [1] was above 100 µM; in assay [2] it was 43.4 µM; in assay [3], above 100 µM; in [4] it was 97.7 µM; in assay [10], 70.6 µM; in assay [5], 62.1 µM. The TGI in [6] was 93.3 µM; in assay [7] it was 71.4 µM; in assay [8], above 100 µM; in assay [9] it was 42.7 µM.
With `Nc1nc(OCC2CCCCC2)c2[nH]cnc2n1`, the TGI in assay [1] was 81.5 µM; in assay [2], 38.4 µM; in assay [3], above 56.9 µM; in assay [4], 61.9 µM; in assay [10] it was 59.8 µM; in [5], 42.7 µM. The TGI in assay [6] was above 100 µM; in assay [7], above 100 µM; in assay [8], above 73.7 µM; in assay [9], above 74.6 µM.
As for `O=C(CSc1nc2ccc(I)cc2c(=O)n1Cc1ccccc1)NN1C(=O)c2ccccc2C1=O`, the TGI was 72.5 µM in assay [1]; 68.9 µM in [2]; above 100 µM in assay [3]; 42.2 µM in assay [4]; 33.5 µM in [10]; 35.9 µM in [5]. Further, the TGI in [6] was 36.4 µM; in [7] it was above 100 µM; in [8], 30.1 µM; in assay [9], 70.7 µM.
In the case of `CCSc1nc(-c2cccs2)nc2ccc(I)cc12`, the TGI in [1], in assay [2], in [3], in assay [4], in [10] and in assay [6] was above 100 µM in each case. Moreover, the TGI in assay [7], in [8] and in [9] was above 100 µM each time.
For `CC(=O)OCC1OC(Oc2cc(C)c(O)cc2C/C=C(\C)CC/C=C(\C)C[C@@H](C=C(C)C)OC(C)=O)C(O)C(OC(C)=O)C1OC(C)=O` (stereo partly drawn), the TGI was above 50 µM in [1]; above 50 µM in assay [2]; 16.8 µM in assay [3]; above 50 µM in [4]; 21 µM in assay [10]; above 50 µM in assay [5]. The TGI in [6], in assay [7], in [8] and in assay [9] was above 50 µM in each case.
In the case of `COC(=O)NC1C(C)OC(OC2C/C=C(/C)C3C=CC4C(OC5CC(OC6CC(OC7CC(O)C(O)C(C)O7)C(OC7CC(O)C(OC)C(C)O7)C(C)O6)C(O)C(C)O5)C(C)CC(C)C4C3(C)/C(O)=C3\C(=O)OC4(CC(C)C(CO)=CC4/C=C\2C)C3=O)CC1(C)[N+](=O)[O-]` (stereo not drawn), the TGI is above 100 µM in assay [1]; 27.2 µM in [2]; 36.2 µM in assay [3]; 42.8 µM in assay [4]; 11.4 µM in [10]; 32.5 µM in [5]. Further, the TGI in [6] is above 100 µM; in assay [7], above 100 µM; in [8], 44.9 µM; in assay [9] it was 17.8 µM.
On to `C[n+]1c2ccccc2c(CNC(CS)C(=O)O)c2ccccc21` (stereo not drawn), for which the TGI in [1] was 83.9 µM; in assay [2] it was above 100 µM; in assay [3] it was 47.8 µM; in assay [4], above 100 µM; in assay [10], 43.4 µM; in [5], 52 µM. Besides, the TGI in assay [6] was above 100 µM; in [7], above 100 µM; in assay [8], 66.7 µM; in assay [9], 29.6 µM.
`O=c1c2cc(S(=O)(=O)O)ccc2nc(COc2ccc(Oc3ccc(Cl)cc3Cl)cc2)n1C(=S)Nc1ccc(Cl)cc1`: the TGI in [1] came out at 53.1 µM; in assay [2], 64.7 µM; in assay [3] it was 34.1 µM; in [4], 56.6 µM; in assay [10], 4.07 µM; in assay [5], 43.3 µM. In addition, the TGI in assay [6] came to 31.3 µM; in [7] it was 49.4 µM; in [8] it was 35.5 µM; in [9] it was 31 µM.
For `CCCCCCCN(CCCCCCC)CC(O)c1cc2ccccc2c2cc(Br)ccc12` (stereo not drawn), the TGI was above 100 µM in assay [2]; above 100 µM in assay [3]; above 100 µM in assay [4]; above 100 µM in [10]; 77 µM in assay [5]; 54.8 µM in assay [6]. Also, the figures for the TGI in assay [7], in [8] and in assay [9] were above 100 µM, 45.6 µM and above 100 µM, respectively.
For `O=C(NC(Cc1ccc(I)cc1)C(=O)O)c1ccc(Cl)cc1` (stereo not drawn), the TGI in [1], in [3], in assay [4], in assay [10], in assay [5] and in assay [6] was above 100 µM each time. For the same compound, the TGI in assay [7], in [8] and in assay [9] was above 100 µM each time.
For `N=C(N)SCc1cccc([N+](=O)[O-])c1`, the TGI in assay [1] was above 100 µM; in [3], 47.9 µM; in assay [4], above 100 µM; in assay [10], 43.6 µM; in assay [5] it was 60.9 µM; in assay [6], above 100 µM. Besides, the figures for the TGI in [7], in [8] and in [9] were above 100 µM, 97.3 µM and above 100 µM, respectively.
For `CC1(O)COCCCCOc2c(CN)cccc2NC(=O)c2nc(cnc2N)-c2ccc(cc2)S(=O)(=O)C(C)(C)C1` (stereo not drawn), the GI50 is 0.29 µM in assay [1]; 0.042 µM in assay [2]; 0.546 µM in assay [3]; 1.68 µM in [4]; 1.31 µM in [5]; 1.51 µM in assay [6]. Moreover, the GI50 in assay [7] is 0.42 µM; in assay [8], 0.715 µM; in [9] it was 1.86 µM. The TGI in [1] stood at 2.34 µM; in assay [2] it was 2.06 µM; in [3], 2.17 µM; in assay [4], 3.38 µM; in assay [5], 2.74 µM; in assay [6], 3.19 µM. Besides, the values for the TGI in [7], in assay [8] and in assay [9] were 1.98 µM, 2.22 µM and 3.36 µM, respectively.
In the case of `Oc1ccc(-c2nc3cc(F)ccc3s2)cc1`, the TGI in [1] is 40.6 µM; in [2], 40.7 µM; in assay [3], 33.9 µM; in assay [4], 38 µM; in assay [10], above 100 µM; in assay [5], 47.1 µM. The TGI in assay [6] is 74 µM; in assay [7] it was above 100 µM; in [8], 42.6 µM; in [9] it was 36.4 µM.
Consider `CO/N=C(\C)c1cccc(Nc2nc3ccccc3c3occc23)c1`, for which the TGI was found to be 30 µM in [1]; 27.9 µM in assay [2]; 24.5 µM in assay [3]; 26.8 µM in assay [4]; 59.5 µM in assay [10]; 20.3 µM in [5]. Besides, the TGI in assay [6] was 32.5 µM; in assay [8] it was 33.2 µM; in assay [9], 2.18 µM.
With `CCc1ccc2c(c1)C(=O)c1c-2n(CCCN)c(=O)c2cc([N+](=O)[O-])ccc12`, the GI50 is 1.51 µM in assay [2]; 1.21 µM in assay [3]; 1.67 µM in [4]; 2.34 µM in assay [5]; 1.07 µM in assay [8]; 1.48 µM in assay [9]. Moreover, the TGI in assay [2] was found to be 2.84 µM; in assay [3] it was 2.51 µM; in [4], 3.11 µM; in [5] it was 4.06 µM; in assay [8], 2.29 µM; in assay [9], 2.83 µM.
As for `COc1cc([N+](=O)[O-])ccc1N1C(=O)C2c3[nH]c4ccccc4c3C3CCC(C(C)(C)C)CC3C2C1=O` (stereo not drawn), the TGI in assay [1], in assay [2], in assay [3], in assay [4], in assay [10] and in [5] was above 100 µM throughout. Further, the values for the TGI in assay [7], in assay [8] and in [9] were above 100 µM, 25.4 µM and above 100 µM, respectively.
Regarding `Cc1ccc([N+](=O)[O-])cc1S(=O)(=O)Nc1ccc(C2=NOC(c3ccccc3O)C2)cc1` (stereo not drawn), the TGI in [1] is 71.8 µM; in assay [2] it was above 100 µM; in assay [3] it was 19.8 µM; in assay [4] it was above 100 µM; in assay [10] it was 21.4 µM; in assay [5], above 100 µM. Moreover, the results for the TGI in [6], in assay [7] and in assay [9] were above 100 µM, above 100 µM and 98.9 µM, respectively.
`COc1cc([N+](=O)[O-])ccc1NC(=O)c1cccc([N+](=O)[O-])c1O`: the TGI is 66.6 µM in assay [1]; 62 µM in assay [2]; 40.3 µM in assay [3]; 78.8 µM in assay [4]; 55.4 µM in assay [10]; above 100 µM in [6]. The TGI in assay [7], in assay [8] and in [9] was above 100 µM each time.
For the compound `CNC(C)Cc1ccccc1OC` (stereo not drawn), the TGI in assay [1], in assay [2], in assay [3], in assay [4], in [10] and in assay [5] was above 100 µM each time. In addition, the TGI in assay [6], in [7], in assay [8] and in [9] was above 100 µM in each case.
With `c1c2c(cc3c1OCO3)-c1cc3ccc4c(c3c[n+]1CC2)OCO4`, the TGI was above 12.5 µM in assay [1]; above 12.5 µM in assay [2]; above 10.8 µM in assay [3]; above 12.5 µM in assay [4]; above 4.93 µM in assay [10]; above 12.5 µM in [5]. Further, the TGI in assay [6] was above 12.5 µM; in [7], above 12.5 µM; in assay [8], above 11.4 µM; in [9], above 12.5 µM.
Regarding `CCO[C@]12CCC[C@H]1[C@@H]1C(=O)c3ccccc3C(=O)C1=C(C)O2`, the TGI in [1], in assay [2], in [3], in assay [4], in [10] and in assay [5] was above 100 µM throughout. Also, the TGI in [6], in [7], in [8] and in [9] was above 100 µM each time.
Consider `O=C1OC2(OC2c2ccc(Cl)cc2)c2ccccc21` (stereo not drawn), for which the TGI in assay [1], in assay [2], in [3], in assay [4], in assay [10] and in assay [5] was above 100 µM throughout. Moreover, the TGI in assay [6], in assay [7] and in [9] was above 100 µM in each case.
On to `c1ccc([P+](c2ccccc2)(c2ccccc2)c2ccc(-c3ccc([P+](c4ccccc4)(c4ccccc4)c4ccccc4)cc3)cc2)cc1`, for which the TGI was 87.9 µM in assay [1]; 73.3 µM in [2]; 31.5 µM in assay [3]; above 100 µM in assay [4]; above 100 µM in assay [10]; above 100 µM in [6]. For the same compound, the TGI in [7], in [8] and in assay [9] was above 100 µM in each case.
Take `CCOC(=O)Nc1cc2c(c(N)n1)N=C(c1ccc3ccccc3c1)CN2`: the TGI is 23.8 µM in assay [1]; above 83.3 µM in assay [2]; above 100 µM in assay [4]; above 100 µM in [10]; 6.16 µM in assay [5]; above 86.1 µM in assay [6]. The TGI in assay [7] is 31.4 µM; in assay [8], above 100 µM; in assay [9], 30.9 µM.
